Experimental data taken from US20120065063A1, “3-Aryl-4-(2,6-dimethylbenzylidene)isoxazol-5(4H)-ones as Fungicides” (Bayer CropScience AG, priority 2010, published 2012).

Legend:
[1] = log P by HPLC on reversed-phase columns (EEC directive 79/831 Annex V.A8); format: physicochemical; settings: for chromatographic logP: reversed-phase HPLC column (C18), preparation examples, acidic range pH 2.7, formic acid, read-out: log P (HCOOH); for log P: acidic range pH 2.7, 0.1% aqueous formic acid/acetonitrile
Procedure: The log P values were measured according to EEC directive 79/831 Annex V.A8 by HPLC (High Performance Liquid Chromatography) on reversed-phase columns (C 18), using the method below:
The determination was carried out in the acidic range at pH 2.7 using the mobile phases 0.1% aqueous formic acid and acetonitrile; linear gradient from 10% acetonitrile to 95% acetonitrile.

[2] = system: Blumeria graminis f.sp. tritici; assay: Blumeria test (wheat)/protective; format: in vivo; settings: protective, 1000 ppm, evaluation 7 days after inoculation
Procedure: Blumeria Test (Wheat)/Protective [table] To produce an appropriate active compound formulation, I part by weight of active compound is mixed with the specified amounts of solvent and emulsifier, and the concentrate is diluted with water to the desired concentration. To test for protective activity, young plants are sprayed with the preparation of active compound at the stated application rate. After the spray coating has dried on, the plants are dusted with spores of Blumeria graminis f.sp. tritici.

[3] = system: Alternaria solani; assay: Alternaria test (tomato)/protective; format: in vivo; settings: protective, 500 ppm, evaluation 7 days after inoculation
Procedure: Alternaria Test (Tomato)/Protective [table] To produce an appropriate active compound formulation, 1 part by weight of active compound is mixed with the specified amounts of solvent and emulsifier, and the concentrate is diluted with water to the desired concentration. To test for protective activity, young tomato plants are sprayed with the preparation of active compound at the stated application rate. 1 day after the treatment, the plants are inoculated with a spore suspension of Alternaria solani and then remain at 100% relative humidity and 20° C. for 24 h. The plants then remain at 96% relative atmospheric humidity and a temperature of 20° C.

[4] = system: Sphaerotheca fuliginea; assay: Sphaerotheca test (cucumber)/protective; format: in vivo; settings: protective, 500 ppm, evaluation 7 days after inoculation
Procedure: Sphaerotheca Test (Cucumber)/Protective [table] To produce an appropriate active compound formulation, 1 part by weight of active compound is mixed with the specified amounts of solvent and emulsifier, and the concentrate is diluted with water to the desired concentration. To test for protective activity, young cucumber plants are sprayed with the preparation of active compound at the stated application rate. 1 day after the treatment, the plants are inoculated with a spore suspension of Sphaerotheca fuliginea. The plants are then placed in a greenhouse at 70% relative atmospheric humidity and a temperature of 23° C.

SMILES | log P [1] | other results
COc1ccccc1C1=NOC(=O)C1 [3-(2-methoxyphenyl)isoxazol-5(4H)-one] | – | chromatographic logP [1]: 1.67
O=C1CC(c2cccc(C(F)(F)F)c2)=NO1 [3-(3-trifluoromethylphenyl)isoxazol-5(4H)-one] | – | chromatographic logP [1]: 2.4
O=C1CC(c2ccc(F)cc2)=NO1 [3-(4-fluorophenyl)isoxazol-5(4H)-one] | – | chromatographic logP [1]: 1.74
Cc1cc(C)c(/C=C2\C(=O)ON=C2c2cccc(C(F)(F)F)c2)c(C)c1 [Compound 1-59, 4-(2,4,6-trimethylbenzylidene)-3-(3-trifluoromethylphenyl)-1,2-oxazol-5(4H)-one] | – | chromatographic logP [1]: 4.62
O=C1ON=C(c2ccccc2)C1=Cc1ccccc1 [Compound A-1] | – | efficacy [2]: 29%; efficacy [3]: 0%; efficacy [4]: 30%
Cc1cc(C)c(C=C2C(=O)ON=C2c2ccccc2C(F)(F)F)c(C)c1 [Compound I-1] | 4.34 | –
Cc1cc(C)c(C=C2C(=O)ON=C2c2ccccc2OC(F)(F)F)c(C)c1 [Compound I-2] | 4.59 | –
Cc1cc(C)c(C=C2C(=O)ON=C2c2ccccc2[N+](=O)[O-])c(C)c1 [Compound I-3] | 3.76 | –
Cc1cccc(C)c1C=C1C(=O)ON=C1c1ccccc1[N+](=O)[O-] [Compound I-4] | 3.40 | –
Cc1cc(C)c(C=C2C(=O)ON=C2c2cccc(C)c2C)c(C)c1 [Compound I-8] | 4.68 | –
Cc1ccccc1C1=NOC(=O)C1=Cc1c(C)cccc1C [Compound I-9] | 3.95 | –
Cc1cccc(C2=NOC(=O)C2=Cc2c(C)cccc2C)c1C [Compound I-12] | 4.26 | –
Cc1cc(C)c(C=C2C(=O)ON=C2c2ccccc2)c(C)c1 [Compound I-13] | 4.01 | –
COc1cccc(OC)c1C1=NOC(=O)C1=Cc1c(C)cc(C)cc1C [Compound I-15] | 3.95 | –
COc1cccc(C2=NOC(=O)C2=Cc2c(C)cc(C)cc2C)c1OC [Compound I-16] | 4.08 | –
COc1ccc(F)cc1C1=NOC(=O)C1=Cc1c(C)cc(C)cc1C [Compound I-17] | 4.12 | –
COc1ccccc1C1=NOC(=O)/C1=C\c1c(C)cccc1C [Compound I-18, 4-(2,6-dimethylbenzylidene)-3-(2-methoxyphenyl)-1,2-oxazol-5(4H)-one] | – | chromatographic logP [1]: 3.69
COc1cccc(C2=NOC(=O)C2=Cc2c(C)cccc2C)c1OC [Compound I-20] | 3.73 | –
COc1ccc(F)cc1C1=NOC(=O)C1=Cc1c(C)cccc1C [Compound I-21] | 3.75 | –
Cc1cc(C)c(C=C2C(=O)ON=C2c2ccccc2I)c(C)c1 [Compound I-22] | 4.51 | –
Cc1cc(C)c(C=C2C(=O)ON=C2c2ccccc2F)c(C)c1 [Compound I-23] | 4.07 | –
CCOc1ccccc1C1=NOC(=O)C1=Cc1c(C)cc(C)cc1C [Compound I-26] | 4.42 | –

SMILES | log P [1] | other results
CCOc1ccccc1C1=NOC(=O)C1=Cc1c(C)cccc1C [Compound I-27] | 4.00 | –
Cc1cc(C)c(C=C2C(=O)ON=C2c2ccccc2Cl)c(C)c1 [Compound I-28] | 4.38 | –
Cc1cccc(C)c1C=C1C(=O)ON=C1c1ccccc1Cl [Compound I-29] | 3.97 | –
Cc1cc(C)c(C=C2C(=O)ON=C2c2ccccc2OCc2ccccc2)c(C)c1 [Compound I-30] | 4.86 | –
Cc1cccc(C)c1C=C1C(=O)ON=C1c1ccccc1OCc1ccccc1 [Compound I-31] | 4.51 | –
Cc1cc(C)c(C=C2C(=O)ON=C2c2ccccc2SC(F)F)c(C)c1 [Compound I-32] | 4.27 | –
Cc1cc(C)c(C=C2C(=O)ON=C2c2cccc(Cl)c2Cl)c(C)c1 [Compound I-33] | 4.80 | –
Cc1cccc(C)c1C=C1C(=O)ON=C1c1cccc(Cl)c1Cl [Compound I-34] | 4.31 | –
Cc1cc(C)c(C=C2C(=O)ON=C2c2ccc(Cl)cc2Cl)c(C)c1 [Compound I-35] | 4.94 | –
Cc1cc(C)c(C=C2C(=O)ON=C2c2cc(F)ccc2F)c(C)c1 [Compound I-36] | 4.12 | –
Cc1cccc(C)c1C=C1C(=O)ON=C1c1cc(F)ccc1F [Compound I-37] | 3.77 | –
Cc1cc(C)c(C=C2C(=O)ON=C2c2cc(F)ccc2Cl)c(C)c1 [Compound I-38] | 4.42 | –
Cc1cccc(C)c1C=C1C(=O)ON=C1c1cc(F)ccc1Cl [Compound I-39] | 3.96 | –
Cc1cc(C)c(C=C2C(=O)ON=C2c2cc(Cl)ccc2Cl)c(C)c1 [Compound I-40] | 4.71 | –
Cc1cc(C)c(C=C2C(=O)ON=C2c2cc(Br)ccc2Cl)c(C)c1 [Compound I-41] | 4.83 | –
Cc1cccc(C)c1C=C1C(=O)ON=C1c1cc(Br)ccc1Cl [Compound I-42] | 4.46 | –
Cc1cc(C)c(C=C2C(=O)ON=C2c2cc(Br)ccc2Br)c(C)c1 [Compound I-43] | 5.05 | –
Cc1cccc(C)c1C=C1C(=O)ON=C1c1cc(Br)ccc1Br [Compound I-44] | 4.57 | –
Cc1cc(C)c(C=C2C(=O)ON=C2c2cccc(C(F)(F)F)c2)c(C)c1 [Compound I-45] | 4.62 | –
Cc1cc(C)c(C=C2C(=O)ON=C2c2cccc([N+](=O)[O-])c2)c(C)c1 [Compound I-46] | 3.85 | –
Cc1cccc(C2=NOC(=O)C2=Cc2c(C)cc(C)cc2C)c1 [Compound I-47] | 4.45 | –
Cc1cc(C)cc(C2=NOC(=O)C2=Cc2c(C)cc(C)cc2C)c1 [Compound I-48] | 4.88 | –

SMILES | log P [1] | other results
Cc1cc(C)c(C=C2C(=O)ON=C2c2ccc(C)c(C)c2)c(C)c1 [Compound I-49] | 4.81 | –
Cc1ccc(C2=NOC(=O)C2=Cc2c(C)cccc2C)cc1C [Compound I-50] | 4.41 | –
Cc1cc(C)cc(C2=NOC(=O)C2=Cc2c(C)cccc2C)c1 [Compound I-51] | 4.49 | –
Cc1cccc(C)c1C=C1C(=O)ON=C1c1ccccc1 [Compound I-52] | 3.68 | –
COc1cc(OC)cc(C2=NOC(=O)C2=Cc2c(C)cc(C)cc2C)c1 [Compound I-53] | 4.21 | –
COc1ccc(C2=NOC(=O)C2=Cc2c(C)cc(C)cc2C)cc1OC [Compound I-54] | 4.09 | –
Cc1cc(C)c(C=C2C(=O)ON=C2c2cccc(F)c2)c(C)c1 [Compound I-55] | 4.15 | –
Cc1cc(C)c(C=C2C(=O)ON=C2c2cccc(Cl)c2)c(C)c1 [Compound I-56] | 4.48 | –
Cc1cc(C)c(C=C2C(=O)ON=C2c2ccc(Cl)c(Cl)c2)c(C)c1 [Compound I-57] | 4.95 | –
Cc1cc(C)c(C=C2C(=O)ON=C2c2cc(Cl)cc(Cl)c2)c(C)c1 [Compound I-58] | 5.01 | –
Cc1cc(C)c(C=C2C(=O)ON=C2c2ccc(C(F)(F)F)cc2)c(C)c1 [Compound I-59] | 4.62 | –
Cc1cc(C)c(C=C2C(=O)ON=C2c2ccc(OC(F)(F)F)cc2)c(C)c1 [Compound I-60] | 4.73 | –
Cc1cc(C)c(C=C2C(=O)ON=C2c2ccc(C(C)(C)C)cc2)c(C)c1 [Compound I-61] | 5.43 | –
Cc1cc(C)c(C=C2C(=O)ON=C2c2ccc(OC(C)C)cc2)c(C)c1 [Compound I-62] | 4.70 | –
Cc1cc(C)c(C=C2C(=O)ON=C2c2ccc(-c3ccccc3)cc2)c(C)c1 [Compound I-63] | 5.16 | –
Cc1cc(C)c(C=C2C(=O)ON=C2c2ccc(OCc3ccccc3)cc2)c(C)c1 [Compound I-64] | 5.01 | –
Cc1cc(C)c(C=C2C(=O)ON=C2c2ccc([N+](=O)[O-])cc2)c(C)c1 [Compound I-65] | 3.99 | –
Cc1ccc(C2=NOC(=O)C2=Cc2c(C)cc(C)cc2C)cc1 [Compound I-66] | 4.44 | –
COc1ccc(C2=NOC(=O)C2=Cc2c(C)cc(C)cc2C)cc1 [Compound I-67] | 4.00 | –
Cc1cc(C)c(/C=C2\C(=O)ON=C2c2ccc(F)cc2)c(C)c1 [Compound I-68, 4-(2,4,6-trimethylbenzylidene)-3-(4-fluorophenyl)-1,2-oxazol-5(4H)-one] | – | chromatographic logP [1]: 4.08
CCOc1ccc(C2=NOC(=O)C2=Cc2c(C)cc(C)cc2C)cc1 [Compound I-69] | 4.46 | –
COC(=O)CC(=O)c1cccc(C(F)(F)F)c1 [methyl 3-trifluoromethylbenzoylacetate] | – | chromatographic logP [1]: 2.57
